This is an account of results in patent publication US9056832B2, “Pyridine compounds and the users thereof” (Purdue Pharma L.P., priority 2010, dated 2015).

Read-outs that look alike come from different tables or passages of the source.

One test addresses human Nav1.7 (Homo sapiens (Human), UniProt Q15858). Nature of the test: FLIPR or FLIPR TETRA sodium dye assay with KCl and test article pre-incubation. Type of test: cell-based. Conditions: read-out: Nav1.7 IC50 (μM) ± SEM.
The subject of test [1] is neuropathic hyperalgesia in rats. In words: Seltzer model (partial sciatic nerve ligation) of neuropathic pain, paw withdrawal threshold. Conditions: 30 mg/kg p.o., rat; for Time post-dose (h) with statistically significant increase in paw withdrawal threshold: Seltzer model, assessed 1, 3 and 5 h after administration. The class given is in vivo. The method, then:
Test Animals: Each experiment uses rats weighing between 200-260 g at the start of the experiment. The rats are group-housed and have free access to food and water at all times, except prior to oral administration of a test compound when food is removed for 16 hours before dosing. A control group acts as a comparison to rats treated with a compound of Formulae I-XXXIII. The control group is administered the carrier as used for the test compound. The volume of carrier administered to the control group is the same as the volume of carrier and test compound administered to the test group.
In the Seltzer model, the partial sciatic nerve ligation model of neuropathic pain was used to produce neuropathic hyperalgesia in rats (Seltzer et al., Pain 43:205-218 (1990)). Partial ligation of the left sciatic nerve was performed under inhalation anesthesia, e.g., isoflurane/O2. Following induction of anesthesia, the left thigh of the rat was shaved and the sciatic nerve exposed at high thigh level through a small incision and was carefully cleared of surrounding connective tissues at a site near the trocanther just distal to the point at which the posterior biceps semitendinosus nerve branches off of the common sciatic nerve. A 7-0 silk suture was inserted into the nerve, e.g., with a ⅜ curved, reversed-cutting mini-needle, and tightly ligated so that the dorsal ⅓ to ½ of the nerve thickness was held within the ligature. The wound was closed, e.g., with a single muscle suture (4-0 nylon (Vicryl)) and vetbond tissue glue. Following surgery, the wound area was dusted with antibiotic powder. Sham-treated rats undergo an identical surgical procedure except that the sciatic nerve is not manipulated. Following surgery, animals were weighed and placed on a warm pad until they recovered from anesthesia. Animals were then returned to their home cages until behavioral testing began. The animals were assessed for response to noxious mechanical stimuli by determining PWT, as described below, prior to surgery (baseline), then immediately prior to and 1, 3, and 5 hours after drug administration for rear paw of the animal. Percentage reversal of neuropathic hyperalgesia is defined as: […]
The following compounds were tested and produced a statistically significant increase in paw withdrawal threshold when administered at 30 mg/kg p.o. in the Seltzer model of neuropathic pain at the time points indicated:
Mechanical Hyperalgesia: Sensitivity to noxious mechanical stimuli can be measured in animals using the paw pressure test to assess mechanical hyperalgesia. In rats, hind paw withdrawal thresholds (“PWT”), measured in grams, in response to a noxious mechanical stimulus are determined using an analgesymeter (Model 7200, commercially available from Ugo Basile of Italy), as described in Stein (Biochemistry & Behavior 31: 451-455 (1988)). The rat's paw is placed on a small platform, and weight is applied in a graded manner up to a maximum of 250 grams. The endpoint is taken as the weight at which the paw is completely withdrawn. PWT is determined once for each rat at each time point. PWT can be measured only in the injured paw, or in both the injured and non-injured paw. In one non-limiting embodiment, mechanical hyperalgesia associated with nerve injury induced pain (neuropathic pain) can be assessed in rats. Rats are tested prior to surgery to determine a baseline, or normal, PWT. Rats are tested again 2 to 3 weeks post-surgery, prior to, and at different times after (e.g. 1, 3, 5 and 24 hr) drug administration.

Where [2] appears, read: recombinant human Nav1.7 in HEK293 cells, CoroNa Green sodium dye, veratridine + scorpion venom.

What is called IC50 is the point on the concentration scale where inhibition reaches its midpoint.

human Nav1.7, sequence (Q15858 other isoform, or with tags, fused parts or gaps): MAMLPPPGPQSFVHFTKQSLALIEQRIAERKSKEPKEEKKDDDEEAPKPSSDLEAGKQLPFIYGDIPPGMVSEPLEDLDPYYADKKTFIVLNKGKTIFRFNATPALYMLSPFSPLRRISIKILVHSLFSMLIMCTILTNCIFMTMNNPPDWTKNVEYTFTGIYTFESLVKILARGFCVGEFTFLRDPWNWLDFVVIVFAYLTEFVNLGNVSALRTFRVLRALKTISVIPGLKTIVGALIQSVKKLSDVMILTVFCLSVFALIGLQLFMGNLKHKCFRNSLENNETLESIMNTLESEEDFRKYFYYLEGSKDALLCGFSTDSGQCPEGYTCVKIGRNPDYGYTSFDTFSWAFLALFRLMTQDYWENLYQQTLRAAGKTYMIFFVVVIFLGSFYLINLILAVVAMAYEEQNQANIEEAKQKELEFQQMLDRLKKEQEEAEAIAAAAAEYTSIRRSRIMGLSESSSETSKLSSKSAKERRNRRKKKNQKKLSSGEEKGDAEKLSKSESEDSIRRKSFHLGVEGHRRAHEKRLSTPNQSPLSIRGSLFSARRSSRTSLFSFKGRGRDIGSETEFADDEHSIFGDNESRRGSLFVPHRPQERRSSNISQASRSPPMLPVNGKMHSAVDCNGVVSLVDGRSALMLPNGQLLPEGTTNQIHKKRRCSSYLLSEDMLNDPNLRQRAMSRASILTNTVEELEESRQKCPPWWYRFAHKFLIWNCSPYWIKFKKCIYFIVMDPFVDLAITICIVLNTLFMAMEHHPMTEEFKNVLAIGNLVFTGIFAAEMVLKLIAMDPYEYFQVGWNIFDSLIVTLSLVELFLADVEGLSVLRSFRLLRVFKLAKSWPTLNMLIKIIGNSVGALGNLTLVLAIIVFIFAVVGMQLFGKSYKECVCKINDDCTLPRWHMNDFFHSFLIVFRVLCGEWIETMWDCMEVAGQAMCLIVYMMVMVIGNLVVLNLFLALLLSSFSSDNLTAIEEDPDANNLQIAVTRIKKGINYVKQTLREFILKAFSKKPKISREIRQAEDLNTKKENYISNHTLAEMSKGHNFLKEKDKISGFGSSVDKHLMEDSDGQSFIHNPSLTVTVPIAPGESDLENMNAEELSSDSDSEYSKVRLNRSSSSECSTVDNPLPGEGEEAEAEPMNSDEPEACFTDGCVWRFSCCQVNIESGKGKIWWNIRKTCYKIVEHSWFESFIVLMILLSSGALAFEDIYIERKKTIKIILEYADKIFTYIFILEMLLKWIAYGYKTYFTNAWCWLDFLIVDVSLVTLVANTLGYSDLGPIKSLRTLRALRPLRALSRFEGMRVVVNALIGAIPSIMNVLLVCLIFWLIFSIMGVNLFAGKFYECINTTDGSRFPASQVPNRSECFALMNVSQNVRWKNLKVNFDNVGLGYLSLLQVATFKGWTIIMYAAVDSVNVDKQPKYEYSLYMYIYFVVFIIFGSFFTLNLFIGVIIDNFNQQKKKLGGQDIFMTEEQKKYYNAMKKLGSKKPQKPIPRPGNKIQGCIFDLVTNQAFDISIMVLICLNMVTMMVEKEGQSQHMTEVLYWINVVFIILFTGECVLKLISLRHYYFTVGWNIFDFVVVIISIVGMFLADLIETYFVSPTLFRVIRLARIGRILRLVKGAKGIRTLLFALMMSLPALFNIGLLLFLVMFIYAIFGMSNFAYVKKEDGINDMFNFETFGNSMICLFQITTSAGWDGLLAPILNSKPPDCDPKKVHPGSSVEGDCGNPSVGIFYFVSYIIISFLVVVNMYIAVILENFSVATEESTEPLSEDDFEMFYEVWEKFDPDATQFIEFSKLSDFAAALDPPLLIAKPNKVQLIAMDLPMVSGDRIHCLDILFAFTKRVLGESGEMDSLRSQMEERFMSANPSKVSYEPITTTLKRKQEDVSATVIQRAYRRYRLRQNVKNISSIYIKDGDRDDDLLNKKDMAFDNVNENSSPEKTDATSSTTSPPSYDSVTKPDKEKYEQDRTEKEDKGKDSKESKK

Turning to `OC[C@H](O)c1cccc(-c2ccc(Oc3ccc(C(F)(F)F)cc3)cc2)n1` [compound 5, (R)-1-(6-(4-(4-(trifluoromethyl)phenoxy)phenyl)pyridin-2-yl)ethane-1,2-diol], the IC50 on human Nav1.7 is 0.16 ± 0.07 µM. Moreover, the “Time post-dose (h) with statistically significant increase in paw withdrawal threshold” value in test [1] is listed as 1 h.

On to `N#Cc1cc(Oc2ccc(-c3cccc([C@H](O)CO)n3)cc2)ccc1C(F)(F)F` [compound 18, (S)-5-(4-(6-(1,2-dihydroxyethyl)pyridin-2-yl)phenoxy)-2-(trifluoromethyl) benzonitrile], for which, at human Nav1.7, the IC50 amounted to 2.8 ± 0.12 µM. Further, the “Time post-dose (h) with statistically significant increase in paw withdrawal threshold” value in test [1] is recorded as 1 h.

For `NC(=O)c1cc([C@H](O)CO)cc(-c2ccc(Oc3ccc(C(F)(F)F)cc3)cc2)n1` [compound 30, (S)-4-(1,2-dihydroxyethyl)-6-(4-(4-(trifluoromethyl)phenoxy)phenyl) picolinamide], on human Nav1.7 (setting [2]), the concentration for half-maximal inhibition (IC50) was 0.24 ± 0.07 µM. In addition, in test [1], the “Time post-dose (h) with statistically significant increase in paw withdrawal threshold” value is 1 h.

As for `NC(=O)c1cc([C@@H](O)CO)cc(-c2ccc(Oc3ccc(F)cc3)cc2)n1` [compound 40, (R)-4-(1,2-dihydroxyethyl)-6-(4-(4-fluorophenoxy)phenyl)picolinamide], in test [1], the “Time post-dose (h) with statistically significant increase in paw withdrawal threshold” value was 1 h.

`N#Cc1cc(C(F)(F)F)ccc1Oc1ccc(-c2cccc(CNCCN3CCNC3=O)n2)cc1` [compound 63, 2-(4-(6-(((2-(2-oxoimidazolidin-1-yl)ethyl)amino)methyl)pyridin-2-yl)phenoxy)-5-(trifluoromethyl) benzonitrile]: on human Nav1.7 (setting [2]), the IC50 was found to be 0.09 ± 0.03 µM. Further, the “increase in paw withdrawal threshold in the Seltzer model” value in test [1] (vehicle 10% Tween 80 in water) is “did not produce a statistically significant increase”.

Consider `O=C1NCCN1CCNCc1cccc(-c2ccc(Oc3ccc(C(F)(F)F)cn3)cc2)n1` [compound 68, 1-(2-(((6-(4-((5-(trifluoromethyl)pyridin-2-yl)oxy)phenyl)pyridin-2-yl)methyl)amino)ethyl) imidazolidin-2-one], for which the IC50 at human Nav1.7 (setting [2]) is 0.18 ± 0.09 µM. Moreover, in test [1], the “Time post-dose (h) with statistically significant increase in paw withdrawal threshold” value is listed as 1 h.

With `NC(=O)c1cc([C@H](O)CO)cc(-c2ccc(-c3ccc(F)cc3)cc2)n1` [compound 154, 4-((S)-1,2-Dihydroxy-ethyl)-6-(4′-fluoro-biphenyl-4-yl)pyridine-2-carboxylic acid amide], the concentration for half-maximal inhibition (IC50) on human Nav1.7 (setting [2]) is 1.12 ± 0.07 µM.

On to `NC(=O)c1cc([C@@H](O)CO)cc(-c2ccc(-c3ccc(F)cc3)cc2)n1` [compound 155, 4-((R)-1,2-Dihydroxy-ethyl)-6-(4′-fluoro-biphenyl-4-yl)pyridine-2-carboxylic acid amide], for which, at human Nav1.7 (setting [2]), the 50% inhibitory concentration (IC50) was found to be 2.78 ± 0.61 µM.

Regarding `NC(=O)c1cc(-c2ccc(Oc3ccc(OC(F)(F)F)cc3)cc2)cc([C@H](O)CO)n1` [compound 156, 6-((S)-1,2-Dihydroxy-ethyl)-4-[4-(4-trifluoromethoxy-phenoxy)phenyl]-pyridine-2-carboxylic acid amide], the IC50 on human Nav1.7 (setting [2]) turned out to be 0.13 ± 0.02 µM.

For `NC(=O)c1cc(-c2ccc(Oc3ccc(OC(F)(F)F)cc3)cc2)cc([C@@H](O)CO)n1` [compound 157, 6-((R)-1,2-Dihydroxy-ethyl)-4-[4-(4-trifluoromethoxy-phenoxy)phenyl]-pyridine-2-carboxylic acid amide], on human Nav1.7 (setting [2]), the concentration for half-maximal inhibition (IC50) stood at 0.12 ± 0.008 µM.

With `NC(=O)c1cc(-c2ccc(Oc3cccc(OC(F)(F)F)c3)cc2)cc([C@H](O)CO)n1` [compound 158, 6-((S)-1,2-Dihydroxy-ethyl)-4-[4-(3-trifluoromethoxy-phenoxy)phenyl]-pyridine-2-carboxylic acid amide], the half-maximal inhibitory concentration (IC50) on human Nav1.7 (setting [2]) was 0.16 ± 0.01 µM.

For the compound `NC(=O)c1cc([C@H](O)CO)cc(-c2ccc(Oc3ccc(OC(F)(F)F)cc3)cc2)n1` [compound 159, 4-((S)-1,2-Dihydroxy-ethyl)-6-[4-(4-trifluoromethoxy-phenoxy)phenyl]-pyridine-2-carboxylic acid amide], the 50% inhibitory concentration (IC50) at human Nav1.7 (setting [2]) was 0.3 ± 0.02 µM.

Consider `NC(=O)c1cc(-c2ccc(-c3ccc(F)cc3)cc2)cc([C@H](O)CO)n1` [compound 160, 6-((S)-1,2-Dihydroxy-ethyl)-4-(4′-fluoro-biphenyl-4-yl)pyridine-2-carboxylic acid amide], for which the half-maximal inhibitory concentration (IC50) at human Nav1.7 worked out at 0.49 ± 0.12 µM.

For `NC(=O)c1cc([C@@H](O)CO)cc(-c2ccc(Oc3ccc(OC(F)(F)F)cc3)cc2)n1` [compound 161, 4-((R)-1,2-Dihydroxy-ethyl)-6-[4-(4-trifluoromethoxy-phenoxy)phenyl]-pyridine-2-carboxylic acid amide], at human Nav1.7 (setting [2]), the IC50 worked out at 1.38 ± 0.2 µM.

Take `NC(=O)c1cc([C@H](O)CO)cc(-c2ccc(Oc3cccc(OC(F)(F)F)c3)cc2)n1` [compound 163, 4-((S)-1,2-Dihydroxy-ethyl)-6-[4-(3-trifluoromethoxy-phenoxy)phenyl]-pyridine-2-carboxylic acid amide]: the half-inhibitory concentration (IC50) at human Nav1.7 (setting [2]) is 0.63 ± 0.07 µM.

Regarding `NC(=O)c1cc([C@@H](O)CO)cc(-c2ccc(Oc3cccc(OC(F)(F)F)c3)cc2)n1` [compound 164, 4-((R)-1,2-Dihydroxy-ethyl)-6-[4-(3-trifluoromethoxy-phenoxy)phenyl]-pyridine-2-carboxylic acid amide], at human Nav1.7 (setting [2]), the IC50 turned out to be 0.49 ± 0.1 µM.

For `C[C@H](Nc1cc(C#N)nc(-c2ccc(Oc3ccc(F)cc3)cc2)c1)C(N)=O` [compound 165, (S)-2-((2-cyano-6-(4-(4-fluorophenoxy)phenyl)pyridin-4-yl)amino)propanamide], the IC50 at human Nav1.7 (setting [2]) was found to be 1.97 ± 0.49 µM.

`C[C@H](Nc1cc(C#N)cc(-c2ccc(Oc3ccc(F)cc3)cc2)n1)C(N)=O` [compound 166, (S)-2-((4-cyano-6-(4-(4-fluorophenoxy)phenyl)pyridin-2-yl)amino)propanamide]: at human Nav1.7 (setting [2]), the IC50 stood at 4.32 ± 1 µM.

For `C[C@H](Nc1cc(C(N)=O)nc(-c2ccc(Oc3ccc(F)cc3)cc2)c1)C(N)=O` [compound 167, (S)-4-((1-amino-1-oxopropan-2-yl)amino)-6-(4-(4-fluorophenoxy)phenyl) picolinamide], the IC50 at human Nav1.7 was determined as 0.73 ± 0.1 µM.
